Results taken from article PMC3750315, “The production and characterization of a new active lipase from Acremonium alcalophilum using a plant bioreactor” (Biotechnology for Biofuels, 2013).

biological target: T1, LipA (Sodiomyces alcalophilus, UniProt P0CT91); experiment: p-nitrophenol release, […] nm; type: biochemical; conditions: 100 mM phosphate buffer pH 8.0, 40°C
T1 construct: Transient in Nicotiana benthamiana; vector adds Pr1b signal peptide, Xpress tag, C-myc tag, KDEL (tags kept); N-glycosylated, about 56 kDa on SDS-PAGE
T1 sequence (P0CT91 23-416): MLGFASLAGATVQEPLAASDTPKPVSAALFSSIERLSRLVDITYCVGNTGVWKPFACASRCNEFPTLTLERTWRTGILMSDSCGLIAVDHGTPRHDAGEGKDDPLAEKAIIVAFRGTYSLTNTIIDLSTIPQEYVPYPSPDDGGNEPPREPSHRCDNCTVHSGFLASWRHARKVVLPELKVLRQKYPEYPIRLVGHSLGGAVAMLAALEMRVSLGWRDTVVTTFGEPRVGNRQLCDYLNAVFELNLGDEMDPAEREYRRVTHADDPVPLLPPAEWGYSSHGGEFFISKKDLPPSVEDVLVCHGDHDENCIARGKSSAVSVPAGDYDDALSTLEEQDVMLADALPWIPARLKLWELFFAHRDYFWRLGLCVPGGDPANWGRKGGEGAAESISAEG

SMILES | Km [µM]
CC(=O)Oc1ccc([N+](=O)[O-])cc1 [pNP acetate (C2)] | 150
CCCC(=O)Oc1ccc([N+](=O)[O-])cc1 [pNP butyrate (C4)] | 160

Continued, values first:

Km [µM] | SMILES
100 | CCCCCCCC(=O)Oc1ccc([N+](=O)[O-])cc1 [pNP caprylate (C8)]
70 | CCCCCCCCCCCCCC(=O)Oc1ccc([N+](=O)[O-])cc1 [pNP myristate (C14)]
100 | CCCCCCCCCCCCCCCC(=O)Oc1ccc([N+](=O)[O-])cc1 [pNP palmitate (C16)]
